From patent US7538193B2, “NO-modified hemoglobins and uses therefor” (Duke University, priority 1995, dated 2009)

Assays:
[1] = system: rabbit thoracic aorta rings; test: Rabbit aortic ring bioassay: vessel tone and ACh (EDRF)-mediated relaxation; assay type: cell-based; details: 1 μM addition; ACh-mediated relaxation of rabbit aortic ring
Description: The effects of native Hb on EDRF responses were compared with Hb preparations in which the thiol or heme centers had been blocked by alkylation or cyanmet derivitization, respectively. All preparations of Hb elicited contractions; however, those of native Hb (in which both SH and metal centers are free for interaction) were most pronounced. […] Relaxations were inhibited to lesser degrees by cyanmet Hb (CN-Hb) (in which hemes were blocked from reaction) and NEM-Hb (in which thiol groups were alkylated by N-ethylmaleimide). […] Direct measurement of SNO-Hb, formed from EDRF under similar conditions, is described in Example 8.
Descending rabbit thoracic aorta were cut into 3 mm rings and mounted on stirrups attached to force transducers (model FT03, Grass Instruments, Quincy, Mass.) for measurement of isometric tone. The details of this bioassay system have been previously described (Stamler, J. S., et al., Proc. Natl. Acad. Sci. USA, 89:444-448 (1992)). Cyanmet Hb was prepared from human HbA according to published protocols (Kilbourn, R. G. et al. Biochem. Biophys. Res. Comm., 199:155-162, (1994)). Alkylation of HbA with N-ethylmaleimide was followed by desalting across G-25 Sephadex to remove excess NEM. Removal of unmodified Hbcysβ93 was achieved by passage through Hg-containing affinity columns. The alkylation of free SH groups was verified using 5,5′-dithio-bis[2-nitrobenzoic acid].

[2] = system: rabbit thoracic aortic rings, endothelium removed; test: Oxygen-dependent vessel ring bioassay (Examples 22, 23); assay type: cell-based
[3] = system: rat brain (caudatoputamen nucleus); test: Brain blood flow in rats by H2 clearance (Example 12); assay type: in vivo
Description: SNO-Hb(FeII)O2, having a SNO/Hb ratio of 2, was prepared (from HbA0) by reaction with S-nitrosothiol. Rats breathing 21% O2 were injected (time 0) with Hbs prepared from HbA0 as indicated in FIG. 10 (open circles, SNO-Hb (100 nmol/kg); filled circles, SNO-Hb (1000 nmol/kg); filled squares, unmodified Hb (1000 nmol/kg)). Three rats were used per experiment. Blood flow was measured in brain using the H2 clearance method; microelectrodes were placed in the brain stereotactically. […] NO group release is promoted by local tissue hypoxia.

[4] = system: substantia nigra, caudate putamen nucleus and parietal cortex of Sprague-Dawley rats; test: O2-dependent local cerebral blood flow in rats (Example 25); assay type: in vivo, rat; details: 1 μmol/kg infused over 3 minutes
Description: Adult male Sprague-Dawley rats (290-350 g) were anesthetized with sodium pentobarbital (50 mg/kg IP), intubated and ventilated with a small animal respirator (Edco Scientific Inc., Chapel Hill, N.C.) at a rate and tidal volume to maintain normal values of PaCO2 (35-45 mm Hg; PaCO2=systemic arterial blood carbon dioxide tension). The femoral vein and artery were cannulated for infusion of drugs and for continuous monitoring of systemic blood pressure, respectively. Aliquots of arterial blood (200 μl) were drawn periodically to measure blood gas tensions and pH (Instrumentation Laboratory Co., model 1304 blood gas/pH analyzer). The blood was replaced intravenously with three volumes of normal saline. The inspired O2 concentration was varied using premixed gases balanced with nitrogen. The tissue PO2 was measured continuously with polarographic platinum microelectrodes (50 μm O.D. coated with hydrophobic gas permeable Nafion) implanted stereotaxically in both the right and left hippocampus (AP-3.4 mm, ML+2.2 mm), caudate putamen nucleus and substantia nigra (see coordinates below) (Young, W., Stroke, 11:552-564 (1980); Heiss, W. D. and Traupett, H., Stroke, 12:161-167 (1981); Dewhirst, M. W. et al., Cancer Res., 54:3333-3336 (1994); Kerger, H. et al., Am. J. Physiol., 268:H802-H810 (1995)). The PO2 electrodes were polarized to −0.65V against a distant Ag/AgCl reference located on the tail and the current flow was measured using a low-impedance nA-meter. Regional arterial PO2 was adjusted by changing the inspired O2 concentration and atmospheric pressure.
Polarographic hydrogen (H2)-sensitive microelectrodes were implanted stereotaxically in the substantia nigra (AP −5.3 mm, ML −2.4 mm to the bregma, depth 3.2 mm), caudate putamen nucleus (CPN) (AP +0.8 mm, ML −2.5 mm, depth 5.2 mm) and parietal cortex, for measurement of regional blood flow (Young, W., Stroke, 11:552-564 (1980); Heiss, W. D. and Traupett, H., Stroke, 12:161-167 (1981)). The microelectrodes were made from platinum wire and insulated with epoxy, with the exception of the tip (1 mm) which was coated with Nafion. For placement, the electrodes were mounted on a micromanipulator and the rat's head was immobilized in a Kopf stereotaxic frame. H2-sensitive electrodes were polarized to +400 mV against a distant reference electrode on the tail, and the polarographic current was measured using a low-impedance nA meter during and after the inhalation of hydrogen gas (2.5%) for 1 min. Both the hydrogen clearance curves and voltage for oxygen measurements were made using PC WINDAQ (software, DI-200 AC, Dataq Instruments, Inc., Akron, Ohio). Cerebral blood flow was calculated using the initial slope method (Young, W., Stroke, 11:552-564 (1980); Heiss, W. D. and Traupett, H., Stroke, 12:161-167 (1981)). Regional blood flow responses were monitored for 30 min. prior to and 30 min. following drug administration; hemoglobins were given at time 0.
The cerebrovascular effects of SNO-Hb were measured in adult male Sprague-Dawley rats using O2 and H2 (blood flow)-sensitive microelectrodes that were placed stereotaxically in several regions of the brain as for Example 24.

rabbit aortic ring = test: Vessel ring bioassay of SNO-Hb preparations (Examples 4, 13); assay type: cell-based; details: for effect of added glutathione on the dose-response: glutathione 100 ∥M in bioassay chambers (FIG. 4B); for vasoactivity in vascular ring bioassay: no added thiol (FIG. 4A)
Description: Details of the vessel ring bioassay have been published (Stamler, J. S., et al., Proc. Natl. Acad. Sci. USA 89:444-448 (1992)). SNO-Hb(FeII)O2 preparations were synthesized with 10-fold excess S-nitrosocysteine (CYSNO) over Hb(FeII)O2 protein (2% borate, 0.5 mM EDTA, ˜15 min incubation), after which desalting was performed across Sephadex G-25 columns. CYSNO was synthesized in 0.5 N HCl, 0.5 mM EDTA and then neutralized (1:1) in 1 M phosphate buffer containing 0.5 mM EDTA. […] The latter was synthesized by treatment of Hb(FeII)O2 with excess ferricyanide, followed by desalting across G-25 columns. SNO-Hb concentrations were verified spectroscopically and the S-nitrosothiol content was determined by the method of Saville (Stamler, J. S., et al., Proc. Natl. Acad. Sci USA 89:444-448 (1992)). The S—NO/tetramer stoichiometry for both SNO-Hb preparations was ˜2. Oxidation of the heme was undetectable by uv-spectrophotometric methods.
The aortic ring bioassay was performed as described in Example 4. The product of the reaction in which a ratio of 100:1 CYSNO/Hb tetramer was used, contains 2 SNOs as well as NO attached to the heme.

Sprague-Dawley rat = test: Mean arterial blood pressure in anesthetized rats after femoral vein bolus (Examples 5, 6); assay type: in vivo; details: for blood pressure response: bolus into femoral vein, 2-200 nmol/kg
Description: Rats were anesthetized by intraperitoneal injection of pentobarbital and the femoral arteries and veins accessed by local cut down. The artery was then cannulated and the blood pressure monitored continuously using a Viggo Spectramed pressure transducer attached to a Gould recorder. An IBM PC (DATA Q Codas) was used for data acquisition.

platelets = test: ADP-induced aggregation of platelet-rich plasma; assay type: cell-based, human; details: 5 μM ADP
Description: Venous blood, anticoagulated with […] sodium citrate, was obtained from volunteers who had not consumed acetylsalicylic acid or any other platelet-active agent for at least 10 days. Platelet-rich plasma was prepared by centrifugation at 150×g for 10 minutes at 25° C. and was used within 2 hours of collection. Platelet counts were determined with a Coulter counter (model ZM) to be 1.5 to 3×10^8/ml.
Aliquots (0.3 ml) of platelets were incubated at 37° C. and stirred at 1000 rpm in a PAP-4 aggregometer (Biodata, Hatsboro, Pa.). Hemoglobins were preincubated with platelets for 10 min and aggregations were induced with 5 μM ADP. Aggregations were quantified by measuring the maximal rate and extent of change of light transmittance and are expressed as a normalized value relative to control aggregations performed in the absence of hemoglobin.

cGMP in platelets = test: cGMP radioimmunoassay in platelet rich plasma; assay type: cell-based; details: 1, 10 and 100 μM; 5 min incubation
Description: Platelet rich plasma (PRP) was incubated with either hemoglobin, SNO-oxy Hb, or SNO-metHb for 5 min, after which the assay was terminated by the addition of 0.5 ml of ice cold trichloroacetic acid to 10%. Ether extractions of the supernatant were performed to remove trichloroacetic acid, and acetylation of samples with acetic anhydride was used to increase the sensitivity of the assay. Measurements of cyclic GMP were performed by radioimmunoassay (Stamler, J. et al., Circ. Res. 65:789-795 (1989)).

[5] = Decomposition and stability of SNO-Hb forms; assay type: physicochemical; details: as synthesized in Example 27
Description: Hbs in PBS (0.5 mM EDTA, pH 7.4) were incubated in air (oxy) or in a tonometer previously evacuated of O2 (deoxy). SNO-Hb(FeII)O2 decomposition was determined by the method of Saville (Saville, B., Analyst 83:670-672 (1958)). Spontaneous decomposition of SNO-Hb(FeII) was followed spectrophotometrically by formation of Hb(FeII)NO. Transnitrosation reactions with glutathione were performed by addition of 100-fold excess glutathione over protein (50 μM), immediate processing of the reaction mixture under anaerobic conditions followed by rapid TCA precipitation, and analysis of RSNO in the supernatant. Rates of NO group transfer were too rapid to measure accurately by the standard methods used in this study.

[6] = Transnitrosation between SNO-Hb and glutathione; assay type: biochemical; details: SNO-Hb 100 μM, glutathione 10 mM
Description: Data are presented as the amount of GSNO formed relative to the starting SNO-Hb concentration.
Thiol/SNO-Hb exchange, forming GSNO, was verified chemically (Stamler, J. S., et al., Proc. Natl. Acad. Sci. USA, 89:444-448 (1992)) following trichloroacetic acid precipitation (n=5).

Hb: native, underivatized human hemoglobin A purified from red cells
% ACh RELAXATION [1]: 31.9 ± 6.9 (n = 7) %
effect on vessel tone ([2]; 1 μM, rings contracted with phenylephrine under hypoxic conditions (6-7 torr)): progressive increases in vessel tone
effect of 10 μM glutathione on the response ([2]; 10 μM glutathione in bioassay chambers): no effect
effect on vessel tension ([2]; 95% O2 or 21% O2 (R-structure)): contract blood vessels
effect on vessel tension ([2]; <1% O2 (~6 torr), T-structure): strongly contracts blood vessels
blood flow to the brain ([3]; rats breathing 21% O2, 100 or 1000 nmol/kg): decreases blood flow
local cerebral blood flow ([4]; 21% O2): decreased local blood flow
local cerebral blood flow ([4]; 100% O2 + 3 ATA): tended to decrease cerebral flow to similar extents
local cerebral blood flow ([4]; 100% O2): preserved

SNO-Hb(FeIII): S-nitroso-methemoglobin, S-nitrosylated methemoglobin
effect of added glutathione on the dose-response (rabbit aortic ring): potentiates the dose-response
vasoactivity in vascular ring bioassay (rabbit aortic ring): vasodilator
time for blood pressure to normalize after hypotensive response (Sprague-Dawley rat): 10 min
mean arterial pressure, post (Sprague-Dawley rat; after 200 nmol/kg (highest dose)): 74±6 mm Hg
mean arterial pressure, pre (Sprague-Dawley rat; before 200 nmol/kg infusion): 108±4 mm Hg
blood pressure response (Sprague-Dawley rat): hypotensive responses
concentrations at which platelet aggregation is inhibited (platelets; preincubated 10 min): ≥ 1 µM
concentration of cGMP measured (cGMP in platelets): less than that of native Hb
stability of the isolated preparation [5]: inherently unstable
rate of NO group transfer to glutathione [6]: more rapid

SNO-Hb(FeII)O2: S-nitroso-oxyhemoglobin made from oxyHb with excess S-nitrosocysteine
effect of added glutathione on the dose-response (rabbit aortic ring): potentiates the dose-response
vasoactivity in vascular ring bioassay (rabbit aortic ring): modest NO-like activity
blood pressure response (Sprague-Dawley rat): did not exhibit hypertensive effects
inhibition of platelet aggregation (platelets; 10 nM to 100 μM preincubated 10 min): some inhibition of platelet aggregation at the higher concentrations tested
duration of effects on blood flow in rat brain ([3]; Example 12, FIG. 10): over 20 minutes
stability of the isolated preparation [5]: quite stable
